Test results taken from patent EP0193257A1, “Control of micro-organisms in water-containing compositions” (NIPA LABORATORIES, LTD., priority 1985, dated 1986).

Key:
[1] = system: mixed culture of 6 species of Gram negative bacteria; test: Survivor plate count in commercial shampoo after challenge; format: cell-based
Procedure: A sample of a commercial shampoo preparation (without preservative) was divided into three portions and, to a first portion of this shampoo, the following preservative system was added: • 0.3% (w/w) of a 30% w/w solution of DCHB in propylene glycol (resulting in a concentration of 0.09% of active DCHB).
To a further portion of the unpreserved shampoo, 0.3% (w/w) propylene glycol alone was added to ensure any observed bactericidal effect was due to DCHB.
20g portions of the unpreserved shampoo and the shampoo with the above additions were inoculated with 0.4 ml of a mixed culture of 6 species of Gram negative bacteria (including an isolate from a contaminated shampoo) to give an initial inoculum level of 2.14 x 10^7 colony forming units per g.
The inoculated samples were mixed by Vortex mixer and stored at room temperature. At regular timed intervals after challenge the total number of survivors in each sample portion were determined by serial dilution and plate counting (Nutrient Agar, 32°C) with the following results: […]

[2] = system: mixed culture of 7 strains of Gram negative bacteria; test: Survivor plate count in shampoo formulation after challenge; format: cell-based; conditions: shampoo with 0.20% of 30% DCHB in propylene glycol (0.06% active DCHB)
Procedure: A shampoo formulation was prepared to the following formula: […]
Various additions were made to portions of this shampoo in sterile bottles under aseptic conditions, as follows: • 1. 0.20% of 30% DCHB in propylene glycol (0.06% active DCHB) • 2. 0.20% of 30% DCHB in propylene glycol + 0.05% citric acid • 3. 0.05% citric acid (control 1) • 4. No addition (control 2)
Each of these systems was inoculated with a mixed culture of 7 strains of Gram negative bacteria, at an initial inocullum level of 9.0x10^7 colony forming units per g. At 30 mins, 1 hour, 2 hours, 6 hours, 24 hours and 7 days after inoculation the total number of survivors in each sample portion were determined by serial dilution and plate counting; with the following results: […]

Acute oral toxicity = conditions: rat, in vivo, rats
From the text: It is important that preservatives added to toiletry, household and pharmaceutical products have a low order of toxicity.

[3] = Storage stability in shampoos, aqueous solutions and creams; format: physicochemical; conditions: 0.3% (w/w) in shampoos, 25°C, in the light and in dark, seven months
Procedure: Samples of shampoos, aqueous solutions and creams with and without addition of DCHB at 0.3% (w/w) have been stored at 25°C, in the light and in dark, for seven months and have been assessed for visual colour change and for DCHB content, by UV analysis, at regular intervals.

[4] = Antimicrobial activity in the presence of proteins; conditions: proteins such as serum and soluble collagen
[5] = commercial shampoo + 0.3% of 30% DCHB in propylene glycol (0.09% active DCHB)

With `O=Cc1cc(Cl)c(O)c(Cl)c1` [DCHB, 3,5-Dichloro-4-hydroxybenzaldehyde] the “Gram negative bacteria - Mixed Culture Colony forming units/g after: 1 day” value [1, 5] was less than 10 Colony forming units/g, the “Gram negative bacteria - Mixed Culture Colony forming units/g after: 7 days” value [1, 5] was less than 10 Colony forming units/g and the “Gram negative bacteria - Mixed Culture Colony forming units/g after: 14 days” value [1, 5] was less than 10 Colony forming units/g. For the same molecule, the “Gram negative bacteria - Mixed Culture Colony forming units/g after: 28 days” value [1, 5] was less than 10 Colony forming units/g, the “Gram negative bacteria - Mixed Culture Colony forming units/g after: 3 hours” value ([1]; commercial shampoo + 0.3% of 30% DCHB in propylene glycol (0.09% active DCHB), initial inoculum 2.14 x 10^7 colony forming units per g) was 9.0x10^6 Colony forming units/g and the “bactericidal effect against normally resistant gram negative bacteria” value ([1]; shampoo containing 0.3 % of 30 % DCHB in propylene glycol) was “rapid and satisfactory bactericidal effect”. The “Mixed culture - colony forming units/g after: 1 hour” value [2] was 3.0x10^6 colony forming units/g, the “Mixed culture - colony forming units/g after: 2 hours” value [2] was 6.6x10^5 colony forming units/g and the “Mixed culture - colony forming units/g after: 6 hours” value [2] was 7.0x10^5 colony forming units/g. For the same molecule, the “Mixed culture - colony forming units/g after: 24 hours” value [2] was 8.4x10^4 colony forming units/g, the “Mixed culture - colony forming units/g after: 7 days” value [2] was 10 colony forming units/g and the “Mixed culture - colony forming units/g after: 30 mins” value ([2]; initial inoculum 9.0x10^7 colony forming units per g) was 3.9x10^6 colony forming units/g. For the same molecule, the LD50 (Acute oral toxicity) was greater than 5000 mg/kg, the “DCHB content, by UV analysis (UV absorption readings)” value [3] was “no significant change” and the visual colour change [3] was “no colour changes”. For the same molecule, the “antimicrobial activity in the presence of proteins” value [4] was “retaining antimicrobial activity”.
